Values of other authors in patent US20050239875A1, “Derivatives of dihydronepetalactone and method for preparation” (priority 2003, published 2005).

Test system: insect
Conditions: disclosed by Hallahan in WO 03/079786

CC1COC(=O)C2C(C)CCC12 (stereo not shown) [DHN, Dihydronepetalactone]
insect repellent performance compared with N,N-diethyl-m-toluamide (DEET): compares favorably
